Test results from patent EP4556003A1, “ANTI-OBESITY AND ANTI-DIABETIC ACTIVITY OF BROMINATED DITERPENES FROM RED ALGAE OF THE GENUS LAURENCIA AND APPLICATIONS THEREOF” (priority 2023, dated 2025).

Key:
COX2 = conditions: in vitro model, reference [11]; cited from earlier work
3T3-L1 cells [1] = test: MTT cell viability / proliferation assay; assay type: cell-based, Mouse
Protocol: The cell viability was evaluated using the MTT assay. 3T3-L1 cells were seeded at a density of 1×10^3 in 96-well plates and incubated for 24h. Compounds 1 and 2 were added in the wells at various concentrations and then incubated at 37 °C. Cells were treated with compound 1 at concentrations of 62.5, 46.875, 31.25, 15.625, 7.81 and 3.9 µM. Cells were treated with compound 2 at concentrations of 62.5, 25.0, 12.5, 6.25 and 3.125 µM. After 24, 48, and 72 h of treatment, MTT solution was added in the wells at a final concentration of 0.5 mg/mL and incubated for 4 h. Cell culture media with MTT was removed and the formazan crystals were dissolved in 100 µl/well isopropanol/HCl (0.4%) and the absorbance was measured at 600 nm using the Infinite® 200 PRO microplate plate reader (Tecan, Zurich, Switzerland).

NFKB1 = conditions: in vitro model, reference [11]; cited from earlier work
3T3-L1 cells [2] = test: Quantitative PCR of relative mRNA expression in cell culture samples; assay type: cell-based, Mouse; conditions: cells differentiated in the presence of compound, 12 days; 1 at 62.5 µM, 2 at 25 µM
Protocol: (§1) Mouse 3T3-L1 preadipocytes were maintained in proliferation medium containing DMEM supplemented with 10% (v/v) heat inactivated NBCS and 1% (v/v) penicillin-streptomycin at 37 °C with 5% CO2, humidified atmosphere. Cells were seeded in T-75 flasks at a density of 25×10^4 cells/flask. Cultures never became completely confluent according to the manufacturer's instructions. They were passaged using trypsin-EDTA solution once they reached 70-80% confluency. For differentiation, 3T3-L1 cells were seeded and after 24 h (day 1), cell differentiation was induced by changing the medium to high glucose DMEM containing 10% (v/v) heat inactivated FBS, 1% penicillin-streptomycin, 10 µg/mL insulin, 0.25 µM Dexamethasone (GAP), 0.5 mM IBMX (=differentiation medium I). On day 3, the medium was changed to high glucose DMEM containing 10% FBS, 1% penicillin- streptomycin, and 10 µg/mL insulin (=differentiation medium II). Thereafter, medium was changed every other day switching between differentiation medium I and differentiation medium II until day 12 or 23, when adipocytes were harvested. Control group preadipocytes were seeded at a higher density and harvested after two days. Test compounds were administered either at the initiation of differentiation, or after 15 days of differentiation and with every medium change. To determine the effect on preadipocyte differentiation, cells were seeded and after 24 h they were treated with neorogioldiol. Neorogioldiol was maintained in the culture medium throughout cell differentiation period. To determine the effect of neorogioldiol on mature adipocytes, cells were seeded and induced to differentiate for 14 days, then on day 15 neorogioldiol was added to the differentiation medium for 24 h before cells were harvested. Each compound used was diluted in a 90% carbowax™ 400, 10% (v/v) absolute ethanol solution serving as a control solvent. The final concentration in culture was 0.09% (v/v) carbowax and 0.01% (v/v) ethanol. Compounds were used at the following concentrations: neorogioldiol (1) 62.5µM and neorogioltriol (2) 25µM.
Adipocytes and preadipocytes were harvested using the TRI Reagent®. RNA isolation was carried out according to the manufacturer's instructions. The purified RNA was quantified using the Nanodrop micro-volume spectrophotometer and 500 ng of each sample were used as a template for reverse transcription. cDNA synthesis was performed using the PrimeScriptTM RT reagent Kit (TaKaRa, RR037A) according to manufacturer's instructions. The cDNA produced by the above described procedure was diluted and used as a template for two-step quantitative PCR in a StepOnePlus™ Real-Time PCR System (Applied Biosystems™, 4376600) for a maximum of 40 cycles, as follows: start step 95 °C for 3 min, repeat steps: 95 °C for 15 s and 60 °C for 30 s. Amplification was performed using KAPA SYBR® FAST Universal qPCR kit (Kapa Biosystems, KK4618) according to manufacturer's instructions. Relative quantitative analysis was accomplished calculating fold-changes of gene expression as 2-(ΔΔCt), where ΔCt is (Ct (gene of interest) - Ct (housekeeping gene)). Ppib was used as internal control gene in 3T3L1 cells and in the fat fraction of mice abdominal fat, Rps9 was used as internal control gene in the stromal vascular fraction of mice abdominal fat and Actb was used as internal control gene in liver samples. Table 1. List of primers used for quantitative real-time PCR analysis.

[3] = references [10, 11]; cited from earlier work
3T3-L1 adipocytes = test: Oil red o staining of intracellular lipid accumulation; assay type: cell-based, Mouse; conditions: differentiation induced in the presence of compound, after 12 days; 1 at 62.5 µM, 2 at 25 µM
Protocol: as §1, with “Compounds were used at the following concentrations: neorogioldiol (1) 62.5µM and neorogioltriol (2) 25µM.” left out
Oil red o staining was applied to measure lipid accumulation intracellularly. Briefly, after 12 or 23 days of differentiation, the cell culture medium was removed and the 3T3-L1 adipocytes were fixed in 3.7% formaldehyde for 60 min at room temperature. Next, a solution of 0.21% oil red o was filtered using a 0.45 µm filter followed by incubation of the fixed cells for 45 min at room temperature. Excess dye was removed and cells were washed twice with PBS. Fresh PBS was added and the lipid droplets within the differentiated 3T3-L1 cells were visualized and photographed by microscopy. For quantitative analysis, oil red o staining was eluted with 100% isopropanol and the absorbance was measured at 510 nm using the Infinite® 200 PRO microplate plate reader (Tecan, Zurich, Switzerland).

[4] = reference [12]; cited from earlier work

Compound: C=C([C@H]1CC[C@@](C)(O)[C@@H](Br)C1)[C@H]1[C@H](O)[C@@H]2[C@@H](CC[C@@]2(C)O)C1(C)C [neorogioltriol]
- COX2 levels (COX2): reducing
- concentrations that did not exhibit cytotoxicity (3T3-L1 cells [1]; concentration chosen for further analyses): 25 µM
- concentration with cytostatic effects (3T3-L1 cells [1]; three-day incubation (24, 48, 72 h), compound 1: after the first 24 h of treatment): above 25 µM
- NFKB1 levels (NFKB1): reducing
- Adipoq expression levels (3T3-L1 cells [2]): restricted the increase
- Dlkl mRNA expression (3T3-L1 cells [2]): did not change
- Lep expression levels (3T3-L1 cells [2]): restricted the increase
- Slc2a4 expression levels (3T3-L1 cells [2]): restricted the increase
- analgesic properties in vivo [3]: potent
- anti-inflammatory properties in vivo [3]: potent
- lipid accumulation (3T3-L1 adipocytes): increased lipid accumulation

Compound: O^11,15-cyclo-14-bromo-14,15-dihydrorogiol-3,11-diol
- anti-inflammatory activity [4]: potent anti-inflammatory activity
